Source: paper doi:10.1101/2021.10.07.463234v2 (biorxiv, 2021)
Structures can show the parent of a compound that is named as a salt.

molecular target: SARS-CoV-2 Mac1 (Severe acute respiratory syndrome coronavirus 2, UniProt P0DTD1); assay: biochemical; conditions: 100 µM; inhibitor

SMILES | %inhibition [%]
Cc1cc(C(C#N)c2ccc(Cl)cc2)c(Cl)cc1NC(=O)c1cc(I)cc(I)c1O (centres unmarked) [Closantel] | 12.2
CC(C)(C)c1nc(-c2cccc(NS(=O)(=O)c3c(F)cccc3F)c2F)c(-c2ccnc(N)n2)s1 [Dabrafenib (GSK2118436)] | 34.76
CC(C)(C)c1nc(-c2cccc(NS(=O)(=O)c3c(F)cccc3F)c2F)c(-c2ccnc(N)n2)s1 [Dabrafenib Mesylate] | 0.5368
O=C1CN(/N=C/c2ccc(-c3ccc([N+](=O)[O-])cc3)o2)C(=O)N1 [Dantrolene sodium hemiheptahydrate] | 2.991
O=C1CN(/N=C/c2ccc(-c3ccc([N+](=O)[O-])cc3)o2)C(=O)N1 [Dantrolene sodium] | 11.92
CCOc1ccc(Cc2cc([C@@H]3O[C@H](CO)[C@@H](O)[C@H](O)[C@H]3O)ccc2Cl)cc1 [Dapagliflozin propanediol monohydrate] | 0
CCOc1ccc(Cc2cc([C@@H]3O[C@H](CO)[C@@H](O)[C@H](O)[C@H]3O)ccc2Cl)cc1 [Dapagliflozin] | 1.439

same assay, conditions: read-out: %inhibition

SMILES | inhibition at 100 µM [%]
CN(C)CCCC1(c2ccc(F)cc2)OCc2cc(C#N)ccc21 (centres unmarked) [Citalopram HBr] | 0
C[N+](C)(C)CCOP(=O)(O)OP(=O)([O-])OC[C@H]1O[C@@H](n2ccc(N)nc2=O)[C@H](O)[C@@H]1O [Citicoline sodium] | 1.89
CC(=O)NC1CCSC1=O (centres unmarked) [Citiolone] | 0
O=C(O)CC(O)(CC(=O)O)C(=O)O [Citric acid trilithium salt tetrahydrate] | 0
Nc1nc(Cl)nc2c1ncn2[C@H]1C[C@H](O)[C@@H](CO)O1 [Cladribine] | 1.17
CC[C@H]1OC(=O)[C@H](C)[C@@H](O[C@H]2C[C@@](C)(OC)[C@@H](O)[C@H](C)O2)[C@H](C)[C@@H](O[C@@H]2O[C@H](C)C[C@H](N(C)C)[C@H]2O)[C@](C)(OC)C[C@@H](C)C(=O)[C@H](C)[C@@H](O)[C@]1(C)O [Clarithromycin] | 24.2
CCCC(=O)OCOC(=O)C1=C(C)NC(C)=C(C(=O)OC)C1c1cccc(Cl)c1Cl (centres unmarked) [Clevidipine Butyrate] | 0
Cc1cn([C@H]2O[C@@H](CO)[C@H](O)[C@H]2F)c(=O)[nH]c1=O [Clevudine] | 18.3
CC(C)(C)C(=O)C(Oc1ccc(Cl)cc1)n1ccnc1 (centres unmarked) [Climbazole] | 18.5
CCC[C@@H]1C[C@@H](C(=O)N[C@@H]([C@H]2O[C@H](SC)[C@H](OP(=O)(O)O)[C@@H](O)[C@H]2O)[C@H](C)Cl)N(C)C1 [Clindamycin Phosphate] | 0
CCCCCCCCCCCCCCCC(=O)O[C@@H]1[C@@H](O)[C@@H](O)[C@@H]([C@H](NC(=O)[C@@H]2C[C@@H](CCC)CN2C)[C@H](C)Cl)O[C@@H]1SC [Clindamycin palmitate HCl] | 22.9
CCC(C)(Oc1ccc(C2(c3ccc(OC(C)(CC)C(=O)O)cc3)CCCCC2)cc1)C(=O)O (centres unmarked) [Clinofibrate] | 0
Oc1c(I)cc(Cl)c2cccnc12 [Clioquinol] | 6.9
CCC(=O)O[C@]1(C(=O)CCl)[C@@H](C)C[C@H]2[C@@H]3CCC4=CC(=O)C=C[C@]4(C)[C@@]3(F)[C@@H](O)C[C@@]21C [Clobetasol propionate] | 9.68
Nc1nc(Cl)nc2c1ncn2[C@@H]1O[C@H](CO)[C@@H](O)[C@@H]1F [Clofarabine] | 44.7
CC(C)/N=c1\cc2n(-c3ccc(Cl)cc3)c3ccccc3nc-2cc1Nc1ccc(Cl)cc1 [Clofazimine] | 5.33
CC(C)(Oc1ccc(Cl)cc1)C(=O)O [Clofibric Acid] | 17.2
CC(C)(C)CC(C)(C)c1ccc(O)c(Cc2ccc(Cl)cc2Cl)c1 [Clofoctol] | 0
Clc1cccc(Cl)c1NC1=NCCN1 [Clonidine HCl] | 0
Clc1ccc(C(OCCN2CCCCC2)c2ccccc2)cc1 (centres unmarked) [Cloperastine hydrochloride] | 5.64
COC(=O)[C@H](c1ccccc1Cl)N1CCc2sccc2C1 [Clopidogrel] | 0
Cc1nc(C)c(Cl)c(O)c1Cl [Clopidol] | 0.707

SMILES | inhibition at 100 µM [%]
CC(C)NCC(O)c1ccccc1Cl (centres unmarked) [Clorprenaline HCl] | 7.59
Nc1cc(C(Cl)=C(Cl)Cl)c(S(N)(=O)=O)cc1S(N)(=O)=O [Clorsulon] | 7.3
Cc1onc(-c2ccccc2Cl)c1C(=O)N[C@@H]1C(=O)N2[C@@H]1SC(C)(C)[C@@H]2C(=O)O [Cloxacillin Sodium] | 9.79
Oc1ccc(Cl)c2cccnc12 [Cloxiquine] | 8.06
O=C(c1ccc(F)c(F)c1Nc1ccc(I)cc1F)N1CC(O)([C@@H]2CCCCN2)C1 [Cobimetinib (GDC-0973, RG7420)] | 5.28
CC(=O)OCC(=O)[C@@]1(O)CC[C@H]2[C@@H]3CCC4=CC(=O)CC[C@]4(C)[C@H]3C(=O)C[C@@]21C [Cortisone acetate] | 10.7
O=c1ccc2ccccc2o1 [Coumarin] | 5.25
CC1(COc2ccc3c(c2)ncn3-c2ccc3cccc(N4CCC(N)CC4)c3n2)COC1 [Crenolanib (CP-868596)] | 0
N#Cc1ccc(Oc2ccc3c(c2)COB3O)cc1 [Crisaborole (AN2728)] | 10
C[C@@H](Oc1cc(-c2cnn(C3CCNCC3)c2)cnc1N)c1c(Cl)ccc(F)c1Cl [Crizotinib (PF-02341066)] | 6.7
COc1cc(/C=C/C(=O)CC(=O)/C=C/c2ccc(O)c(OC)c2)ccc1O [Curcumin] | 1.88
CC1CC(OC(=O)C(O)c2ccccc2)CC(C)(C)C1 (centres unmarked) [Cyclandelate] | 0
C1CNCCNCCNCCN1 [Cyclen] | 0
CN1CCN(C(c2ccccc2)c2ccccc2)CC1 [Cyclizine 2HCl] | 9.76
CN(C)CCC=C1c2ccccc2C=Cc2ccccc21 [Cyclobenzaprine HCl] | 3.24
CC(=O)Oc1ccc(C(=C2CCCCC2)c2ccc(OC(C)=O)cc2)cc1 [Cyclofenil] | 11.6
CC(=O)O[C@]1(C(C)=O)CC[C@H]2[C@@H]3C=C(Cl)C4=CC(=O)[C@@H]5C[C@@H]5[C@]4(C)[C@H]3CC[C@@]21C [Cyproterone Acetate] | 0
Nc1nc(N)nc(NC2CC2)n1 [Cyromazine] | 20.5
NCCS [Cysteamine HCl] | 35.3
Nc1ccn([C@@H]2O[C@H](CO)[C@@H](O)[C@@H]2O)c(=O)n1 [Cytarabine] | 0
O=c1cccc2n1C[C@@H]1CNC[C@H]2C1 [Cytisine] | 0
CC(C)(CO)[C@@H](O)C(=O)NCCCO [D panthenol] | 0

SMILES | inhibition at 100 µM [%]
N[C@@H]1CONC1=O [D-Cycloserine] | 6.32
OC[C@@H](O)[C@@H](O)[C@H](O)[C@H](O)CO [D-Mannitol] | 0
N[C@H](Cc1ccccc1)C(=O)O [D-Phenylalanine] | 4.94
NC(=O)CC[C@@H](N)C(=O)O [D-glutamine] | 2.59
CCCCCCOC(=O)NC(=N)c1ccc(NCc2nc3cc(C(=O)N(CCC(=O)OCC)c4ccccn4)ccc3n2C)cc1 [Dabigatran Etexilate] | 0
CN(C)/N=N/c1[nH]cnc1C(N)=O [Dacarbazine] | 26.1
COC(=O)N[C@H](C(=O)N1CCC[C@H]1c1ncc(-c2ccc(-c3ccc(-c4cnc([C@@H]5CCCN5C(=O)[C@@H](NC(=O)OC)C(C)C)[nH]4)cc3)cc2)[nH]1)C(C)C [Daclatasvir (BMS-790052)] | 1.65
COc1cc2ncnc(Nc3ccc(F)c(Cl)c3)c2cc1NC(=O)/C=C/CN1CCCCC1 [Dacomitinib (PF299804, PF299)] | 3.46
CN[C@H]1C(=O)N[C@@H]2Cc3ccc(cc3)Oc3cc4cc(c3O[C@@H]3O[C@H](C(=O)O)[C@@H](O)[C@H](O)[C@H]3NC(=O)CCCCCCCCC(C)C)Oc3ccc(cc3Cl)[C@@H](O)[C@@H]3NC(=O)[C@H](NC(=O)[C@@H]4NC(=O)[C@@H](NC2=O)c2cc(cc(O)c2Cl)Oc2cc1ccc2O)c1ccc(O)c(c1)-c1c(O[C@H]2O[C@H](CO)[C@@H](O)[C@H](O)[C@@H]2O)cc(O)cc1[C@@H](C(=O)NCCCN(C)C)NC3=O [Dalbavancin] | 23.4
CN1C[C@@H]2C[C@H]1CN2c1cc2c(cc1F)c(=O)c(C(=O)O)cn2C1CC1 [Danofloxacin Mesylate] | 0
O=C1c2cccc(O)c2C(=O)c2c(O)cccc21 [Danthron] | 0
Cc1ccccc1N1CCN(CCc2nnc3n2CCCC3)CC1 [Dapiprazole Hydrochloride] | 12.7
CN(C)[C@@H](CCOc1cccc2ccccc12)c1ccccc1 [Dapoxetine HCl] | 35.7
Nc1ccc(S(=O)(=O)c2ccc(N)cc2)cc1 [Dapson] | 0
CCCCCCCCCC(=O)N[C@@H](Cc1c[nH]c2ccccc12)C(=O)N[C@H](CC(N)=O)C(=O)N[C@@H](CC(=O)O)C(=O)N[C@@H]1C(=O)NCC(=O)N[C@@H](CCCN)C(=O)N[C@@H](CC(=O)O)C(=O)N[C@H](C)C(=O)N[C@@H](CC(=O)O)C(=O)NCC(=O)N[C@H](CO)C(=O)N[C@@H]([C@H](C)CC(=O)O)C(=O)N[C@@H](CC(=O)c2ccccc2N)C(=O)O[C@@H]1C [Daptomycin] | 1.7
NC(=O)C(c1ccccc1)(c1ccccc1)[C@@H]1CCN(CCc2ccc3c(c2)CCO3)C1 [Darifenacin HBr] | 0
CC(C)CN(C[C@@H](O)[C@H](Cc1ccccc1)NC(=O)O[C@H]1CO[C@H]2OCC[C@H]21)S(=O)(=O)c1ccc(N)cc1 [Darunavir Ethanolate] | 0
COc1c(-c2ccc3cc(NS(C)(=O)=O)ccc3c2)cc(-n2ccc(=O)[nH]c2=O)cc1C(C)(C)C [Dasabuvir(ABT-333)] | 0.42
COc1cccc2c1C(=O)c1c(O)c3c(c(O)c1C2=O)C[C@@](O)(C(C)=O)C[C@@H]3O[C@H]1C[C@H](N)[C@H](O)[C@H](C)O1 [Daunorubicin HCl] | 30.2
C[N+](C)(C)CCCCCCCCCC[N+](C)(C)C [Decamethonium Bromide] | 0
